{"source": "patent US20240349718A1", "about": "“COMPOSITION” (priority 2021, published 2024)", "assay": "Lewis acidity: reaction rate constant of CoTPP and oxygen in the presence of a Lewis acid", "type": "physicochemical", "protocol": "Acetonitrile (MeCN) containing cobalt tetraphenylporphyrin (CoTPP), saturated O2, and a substance to be measured for the Lewis acidity (which is, for example, a cation of metal or the like and is represented by M^n+ in the following reaction scheme (A)) in the following reaction scheme (A) is measured for a change in an ultraviolet-visible absorption spectrum at room temperature. From the obtained reaction rate constant (kcat), the ΔE value (eV) as an index of the Lewis acidity can be calculated. […] The Lewis acidity of an organic compound can also be estimated from an energy level of the lowest unoccupied molecular orbital (LUMO) calculated by quantum chemical calculation.\nExamples of the reaction rate constant of CoTPP and oxygen in the presence of a Lewis acid, which is an index of the Lewis acidity measured (calculated) by the above measurement method, are shown below. In the following Table 1, numerical values represented by “kcat, M^−2s^−1” are CoTPP and oxygen in the presence of a Lewis acid. The 5 numerical value represented by “LUMO, eV” is an energy level of LUMO.", "key": {"[1]": {"conditions": "CoTPP and oxygen in MeCN, room temperature"}}, "note": "Read-outs that look alike come from different tables or passages of the source."}
{"compound": "CCCC[N+](CCCC)(CCCC)CCCC.F[P-](F)(F)(F)(F)F", "note": "[Tetrabutylammonium hexafluorophosphate]", "values": [{"measurement": "kcat", "result": ">0.1", "unit": "M^−2s^−1"}]}
{"compound": "Benzalkonium chloride", "values": [{"measurement": "kcat", "setting": "[1]", "result": 0.18, "unit": "M^−2s^−1"}]}
{"compound": "Benzethonium chloride", "values": [{"measurement": "kcat", "setting": "[1]", "result": 0.24, "unit": "M^−2s^−1"}]}
